Measurements: US20020028938A1, “Prostaglandin endoperoxide H synthase biosynthesis inhibitors” (priority 1997, published 2002)
One block for each compound: values may come before it.

Columns and labels:
[1] = target: T1, recombinant human Cox-1 (r-hu Cox1) (Homo sapiens, UniProt P23219); test: Recombinant human PGHS-1 enzyme assay (RHUCX1); type: biochemical
T1 construct: made in house; host or cells: baculovirus/Sf9 insect cells (microsomes)
Method in brief: (§1)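 PGE2 formed with and without drug quantified by EIA against matrix-matched standards; percent inhibition relative to control mean, IC50 by linear regression.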

[2] = target: T2, recombinant human Cox-2 (r-hu Cox-2) (Homo sapiens, UniProt P35354); test: Recombinant human PGHS-2 enzyme assay (RHUCX2); type: biochemical; conditions: for IC50: read-out: RHUCX2 IC50 (parenthetical value)
T2 construct: made in house; host or cells: baculovirus/Sf9 insect cells (microsomes)
T2 sequence (P35354 18-604): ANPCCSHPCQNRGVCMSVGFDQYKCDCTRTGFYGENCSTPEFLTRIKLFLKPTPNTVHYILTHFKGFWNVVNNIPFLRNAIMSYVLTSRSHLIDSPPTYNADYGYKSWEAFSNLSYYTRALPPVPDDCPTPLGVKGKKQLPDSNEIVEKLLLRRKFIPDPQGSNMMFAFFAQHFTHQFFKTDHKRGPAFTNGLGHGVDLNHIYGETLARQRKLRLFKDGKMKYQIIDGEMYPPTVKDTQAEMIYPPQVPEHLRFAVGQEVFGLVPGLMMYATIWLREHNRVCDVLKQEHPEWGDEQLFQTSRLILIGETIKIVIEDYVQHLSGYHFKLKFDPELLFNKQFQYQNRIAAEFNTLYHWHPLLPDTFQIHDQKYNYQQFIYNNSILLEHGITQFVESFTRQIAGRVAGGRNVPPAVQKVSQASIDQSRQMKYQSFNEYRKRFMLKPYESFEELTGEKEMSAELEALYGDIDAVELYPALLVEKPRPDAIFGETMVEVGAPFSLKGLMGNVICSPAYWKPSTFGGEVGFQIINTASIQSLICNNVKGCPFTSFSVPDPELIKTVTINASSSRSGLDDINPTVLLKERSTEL
Method in brief: as §1

[3] = target: T3, human amnionic whole cell cyclooxygenase-2 (WISH cells) (Homo sapiens, UniProt P35354); test: IL-1β induced PGE2 production in WISH cells; type: cell-based; conditions: for IC50: read-out: Wish IC50 (parenthetical value); for inhibition at 0.01 µM / inhibition at 1 µM / inhibition at 0.1 µM: read-out: Wish % Inhib. at Dose
T3 construct: endogenous in cells; host or cells: human amnionic WISH cells, induced with IL-1beta
T3 sequence (P35354 18-604): T2 sequence (P35354 18-604)
Experimental: EIA reagents for prostaglandin determination were purchased from Perseptive Diagnostics, (Cambridge, Mass.). Prostaglandin E2 (PGE2) levels in lavage fluids were determined after the samples were dried under nitrogen and reconstituted with assay buffer. PGE2 levels in enzyme assays or cell culture media were measured against standards prepared in the same milieu. The immunoassays were conducted as recommended by the manufacturer. The EIA was conducted in 96 well microtiter plates (Nunc Roskilde, Denmark) and optical density was measured using a microplate reader (Vmax, Molecular Devices Corp., Menlo Park, Calif.).
Human amnionic WISH cells were grown to 80% confluence in 48 well plates. Following removal of the growth medium and two washings with Geys Balanced Salt Solutn, 5 ng IL-1β /ml (UBI, Lake Placid, N.Y.) was added to the cells with or without test compound in DMSO (0.01% v/v) in Neuman-Tytell Serumless Medium (GIBCO, Grand Island, N.Y.).

[4] = 100 μM, read-out: RHUCX1 % Inh. at Dose
[5] = read-out: RHUCX2 % Inh. at Dose

T1 sequence (P23219 24-599): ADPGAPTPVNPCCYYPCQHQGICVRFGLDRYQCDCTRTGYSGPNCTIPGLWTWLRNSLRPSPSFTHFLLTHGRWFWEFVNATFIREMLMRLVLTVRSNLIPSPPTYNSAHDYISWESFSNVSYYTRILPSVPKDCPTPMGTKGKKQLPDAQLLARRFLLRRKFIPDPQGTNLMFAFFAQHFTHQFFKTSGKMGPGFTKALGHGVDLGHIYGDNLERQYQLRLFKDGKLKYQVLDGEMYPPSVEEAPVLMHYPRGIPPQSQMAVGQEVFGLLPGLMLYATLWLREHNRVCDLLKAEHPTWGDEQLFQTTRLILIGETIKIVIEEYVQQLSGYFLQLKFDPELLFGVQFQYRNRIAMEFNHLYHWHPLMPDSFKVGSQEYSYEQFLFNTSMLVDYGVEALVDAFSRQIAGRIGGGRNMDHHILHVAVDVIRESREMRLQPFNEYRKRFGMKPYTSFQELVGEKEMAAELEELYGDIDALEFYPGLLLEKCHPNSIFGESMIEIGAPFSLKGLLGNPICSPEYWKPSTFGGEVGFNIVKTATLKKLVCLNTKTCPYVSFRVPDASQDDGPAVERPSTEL

Structure (SMILES): CS(=O)(=O)c1ccc(-c2cnn(CC(F)(F)F)c(=O)c2OC2CCCC2)cc1 [Example 85, 2-(2,2,2-Trifluoroethyl)-4-cyclopentyloxy-5-[4-(methylsulfonyl)phenyl]-3(2H)-pyridazinone]
IC50 [3]: 470 nM | melting point: 148 to 150 °C

Structure (SMILES): CC(C)Nc1c(-c2ccc(S(C)(=O)=O)cc2)cnn(CC(F)(F)F)c1=O [Example 86, 2-(2,2,2-Trifluoroethyl)-4-(2-propylamino)-5-[4-(methylsulfonyl)phenyl]-3(2H)-pyridazinone]
inhibition at 0.01 µM ([3]; 0.01 μM): 47% | inhibition at 1 µM [3]: 52%

Structure (SMILES): NS(=O)(=O)c1ccc(-c2cnn(C3C=CCCC3)c(=O)c2-c2ccc(F)cc2)cc1 (centres unmarked) [Example 126]
IC50 [3]: 50 nM

Structure (SMILES): CS(=O)(=O)c1ccc(-c2cnn(C3C4CC5CC(C4)CC3C5)c(=O)c2-c2ccc(F)cc2)cc1 (centres unmarked) [Example 132, 2-(2-Adamantyl)-4-(4-fluorophenyl)-5-[4-(methylsulfonyl)phenyl]-3(2H)-pyridazinone]
inhibition at 1 µM ([1]; 1 μM, read-out: RHUCX1 % Inh. at Dose): 93% | inhibition at 0.1 µM [2, 5]: 43% | inhibition at 1 µM [2, 5]: 88% | inhibition at 0.01 µM ([3]; 0.01 μM): 36% | inhibition at 0.1 µM ([3]; 0.1 μM): 100% | melting point: 195 to 197 °C

Structure (SMILES): CS(=O)(=O)c1ccc(-c2cnn(-c3ccc(F)c(F)c3)c(=O)c2Cc2ccc(F)cc2)cc1 [Example 171, 2-(3,4-Difluorophenyl)-4-(4-fluorobenzyl)-5-[4-(methylsulfonyl)phenyl]-3(2H)-pyridazinone]
inhibition at 100 µM [1, 4]: 0% | inhibition at 0.1 µM [2, 5]: 61% | inhibition at 1 µM [2, 5]: 74% | inhibition at 10 µM ([2]; 10 μM, read-out: RHUCX2 % Inh. at Dose): 82% | inhibition at 0.1 µM ([3]; 0.1 μM): 56% | inhibition at 1 µM [3]: 90% | melting point: 157 to 159 °C

Structure (SMILES): CC(C)CSCc1c(-c2ccc(S(C)(=O)=O)cc2)cnn(-c2ccc(F)cc2)c1=O [Example 198, 2-(4-Fluorophenyl)-4-(2-methylpropylthiomethyl)-5-[4-(methylsulfonyl)phenyl]-3(2H)-pyridazinone]
inhibition at 100 µM [1, 4]: 10% | inhibition at 0.1 µM [2, 5]: 23% | inhibition at 1 µM [2, 5]: 68% | IC50 [3]: 184 nM | melting point: 45 to 60 °C

Structure (SMILES): CC(C)Oc1c(-c2ccc(S(C)(=O)=O)cc2)cnn(-c2cccc(Br)c2)c1=O [Example 203, 2-(3-Bromophenyl)-4-(2-propoxy)-5-[4-(methylsulfonyl)phenyl]-3(2H)-pyridazinone]
inhibition at 0.1 µM ([3]; 0.1 μM): 23% | inhibition at 1 µM [3]: 77% | melting point: 130 to 132 °C

Structure (SMILES): CS(=O)(=O)c1ccc(-c2cnn(CC(F)(F)F)c(=O)c2OCc2ccco2)cc1 [Example 271, 2-(2,2,2-Trifluoroethyl)-4-(2-furylmethoxy)-5-[4-(methylsulfonyl)phenyl]-3(2H)-pyridazinone]
inhibition at 0.1 µM ([3]; 0.1 μM): 15% | inhibition at 1 µM [3]: 52% | melting point: 113 to 115 °C

Structure (SMILES): CC(C)CCOc1c(-c2ccc(S(N)(=O)=O)cc2)cnn(C(C)(C)C)c1=O [Example 399]
Wish % Inhib. at Dose (μM) ([3]; 0.03 μM): 39 @ 0.03% | Wish % Inhib. at Dose (μM) ([3]; 0.1 μM): 82 @ 0.1%

Structure (SMILES): CC(C)=CCCOc1c(-c2ccc(S(N)(=O)=O)cc2)cnn(-c2ccc(F)c(F)c2)c1=O [Example 410]
RHUCX1 % Inh. at Dose (μM) ([1]; 10 μM): 1 @ 10% | RHUCX1 % Inh. at Dose (μM) ([1]; 100 μM): 48 @ 100% | RHUCX2 % Inh. at Dose (μM) ([2]; 0.017 μM): 47 @ 0.017% | RHUCX2 % Inh. at Dose (μM) ([2]; 0.035 μM): 67 @0 .035% | IC50 [3]: 53 nM

The remaining lines, values ahead:

inhibition at 100 µM [1, 4]: 13% | inhibition at 0.1 µM [2, 5]: 65% | inhibition at 1 µM [2, 5]: 98% | IC50 [3]: 20 nM | melting point: 161 to 163 °C
Structure (SMILES): CS(=O)(=O)c1ccc(-c2cnn(Cc3ccccc3)c(=O)c2-c2ccc(Cl)c(Cl)c2)cc1 [Example 65, 2-Benzyl-4-(3,4-dichlorophenyl)-5-[4-(methylsulfonyl)phenyl]-3(2H)-pyridazinone]

IC50 [3]: 50 nM | melting point: 205 °C
Structure (SMILES): CS(=O)(=O)c1ccc(-c2cnn(-c3ccc(F)c(Cl)c3)c(=O)c2-c2ccc(Cl)cc2)cc1 [Example 102, 2-(3-Chloro-4-fluorophenyl)-4-(4-chlorophenyl)-5-[4-(methylsulfonyl)phenyl]-3(2H)-pyridazinone]

IC50 [3]: 40 nM | melting point: 128 to 130 °C
Structure (SMILES): CS(=O)(=O)c1ccc(-c2cnn(C3CCc4ccccc43)c(=O)c2-c2ccc(F)cc2)cc1 (centres unmarked) [Example 129, 2-(2,3-Dihydro-1H-inden-1-yl)-4-(4-fluorop,henyl)-5-[4-(methylsulfonyl)phenyl]-3(2H)-pyridazinone]

IC50 [3]: 29 nM | melting point: 236 to 238 °C
Structure (SMILES): NS(=O)(=O)c1ccc(-c2cnn(Cc3cc(F)c(F)cc3F)c(=O)c2-c2ccc(F)cc2)cc1 [Example 152, 2-(2,4,5-Trifluorobenzyl)-4-(4-fluorophenyl)-5-[4-(aminosulfonyl)phenyl]-3(2H)-pyridazinone]

IC50 [3]: 34 nM | melting point: 182 to 183 °C
Structure (SMILES): C=Cc1cccc(-n2ncc(-c3ccc(S(C)(=O)=O)cc3)c(-c3ccc(F)cc3)c2=O)c1 [Example 162, 2-(3-Vinylphenyl)-4-(4-fluorophenyl)-5-[4-(methylsulfonyl)phenyl]-3(2H)-pyridazinone]

IC50 [3]: 60 nM | melting point: 250 to 260 °C
Structure (SMILES): CS(=O)(=O)c1ccc(-c2cnn(-c3ccc(Cl)cc3F)c(=O)c2-c2ccc(F)cc2)cc1 [Example 191, 2-(4-Chloro-2-fluorophenyl)-4-(4-fluorophenyl)-5-[4-(methylsulfonyl)phenyl]-3(2H)-pyridazinone]

inhibition at 0.1 µM [2, 5]: 81% | inhibition at 1 µM [2, 5]: 97% | IC50 [3]: 68 nM
Structure (SMILES): CS(=O)(=O)c1ccc(-c2cnn(-c3cccc(Cl)c3)c(=O)c2COc2ccc(F)cc2)cc1 [Example 207, 2-(3-Chlorophenyl)-4-(4-fluorophenoxmethyl)-5-[4-(methylsulfonyl)phenyl]-3(2H)-pyridazinone]

inhibition at 100 µM [1, 4]: 0% | IC50 [2]: 28 nM | IC50 [3]: 47.4 nM | melting point: 142 to 143 °C
Structure (SMILES): CS(=O)(=O)c1ccc(-c2cnn(-c3cccc(Cl)c3)c(=O)c2Cc2cccc(F)c2)cc1 [Example 241, 2-(3-Chlorophenyl)-4-(3-fluorobenzyl)-5-[4-(methylsulfonyl)phenyl]-3(2H)-pridazinone]

IC50 [3]: 27 nM
Structure (SMILES): CS(=O)(=O)c1ccc(-c2cnn(Cc3ccccc3)c(=O)c2-c2ccsc2)cc1 [Example 317, 2-Benzyl-4-(3-thienyl)-5-[4-(methylsulfonyl)phenyl]-3(2H)-pyridazinone]

inhibition at 100 µM [1, 4]: 4% | IC50 [2]: 192 nM | inhibition at 0.01 µM ([3]; 0.01 μM): 50%
Structure (SMILES): CS(=O)(=O)c1ccc(-c2cnn(Cc3ccccc3)c(=O)c2-c2cccc([N+](=O)[O-])c2)cc1 [Example 321, 2-Benzyl-4-(3-nitrophenyl)-5-[4-(methylsulfonyl)phenyl]-3(2H)-pyridazinone]

inhibition at 10 µM ([1]; 10 μM, read-out: RHUCX1 % Inh. at Dose): 54% | inhibition at 100 µM [1, 4]: 39% | IC50 [2]: 58 nM | IC50 [3]: 26 nM
Structure (SMILES): C=Cc1ccc(-c2c(-c3ccc(S(C)(=O)=O)cc3)cnn(Cc3ccccc3)c2=O)cc1 [Example 322, 2-Benzyl-4-(4-vinylphenyl)-5-[4-(methylsulfonyl)phenyl]-3(2H)-pridazinone]

RHUCX1 % Inh. at Dose (μM) ([1]; 100 μM): 1 @ 100% | IC50 [2]: 365 nM | Wish % Inhib. at Dose (μM) ([3]; 0.01 μM): 57 @ 0.01%
Structure (SMILES): CS(=O)(=O)c1ccc(-c2cnn(Cc3ccccc3)c(=O)c2-c2ccc(C(F)(F)F)cc2)cc1 [Example 323, 2-Benzyl-4-(4-trifluormethylphenyl)-5-[4-(methylsulfonyl)phenyl]-3(2H)-pyridazinone]

IC50 [3]: 47 nM
Structure (SMILES): COc1ccccc1-c1c(-c2ccc(S(C)(=O)=O)cc2)cnn(Cc2ccccc2)c1=O [Example 324, 2-Benzyl-4-(2-methoxyphenyl)-5-[4-(methylsulfonyl)phenyl]-3(2H)-pyridazinone]

IC50 [3]: 50 nM
Structure (SMILES): COc1ccc(-c2c(-c3ccc(S(C)(=O)=O)cc3)cnn(Cc3ccccc3)c2=O)cc1F [Example 326, 2-Benzyl-4-(3-fluoro-4-methoxyphenyl)-5-[4-(methylsulfonyl)phenyl]-3(2H)-pyridazinone]
